Results published in patent US20080280817A1, “MODIFIED AMINO ACID FOR THE INHIBITION OF PLATELET AGGREGATION” (NOVARTIS AG, priority 2002, published 2008).

Experiments:
Type in all cases: cell-based, human
[1] = test system: platelet rich plasma (PRP); experiment: ADP-induced platelet aggregation in PRP (aggregometer, optical density)
Experimental: (§1) Freshly drawn venous blood from healthy volunteers is collected into 0.1 vol. […] trisodium citrate. The donors have not taken any medication during two weeks prior to blood collection. PRP is prepared by centrifugation of the freshly drawn blood (150 g, 15 minutes at 22° C.) and the final platelet concentration is standardized at 200 000 cell/μL by dilution in autologous platelet-free plasma, prepared by centrifugation (1200 g, 10 minutes at 22° C.). The supernatant is collected. Samples of PRP are pre-incubated for 1 minute (22° C.) with varying concentrations of 5-CNAC in saline (stored at −20° C.).
(§2) In order to assess the inhibitory effect of 5-CNAC on platelet aggregation, the following studies are performed. Samples of 0.400 mL PRP containing 5-CNAC are prepared as above. To these samples is added 0.005 mL of an aggregation stimulator which is either ADP (Roche Molecular Biochemicals, Mannheim) or collagen (Horm Chemie, Munich). The final concentrations of either the ADP or collagen are as indicated in the “Results” section. Aggregation studies are performed in a Chronolog 4 channel aggregometer (type CH570VS-CH810). The aggregometer automatically calibrates the donor-dependent difference in optical density between platelet-free plasma (0% optical density) and the PRP (100% optical density) of a particular donor. The extent of aggregation is measured by expressing the maximal difference in optical density (independent of the time after the addition of the aggregation stimulator, i.e., either ADP or collagen) and normalized taking the control curves (without 5-CNAC) as an internal standard set at 100%.

[2] = test system: platelet rich plasma (PRP); experiment: Addition of 5-CNAC alone to PRP; platelet morphology
Experimental: as §1
In order to assess the inhibitory effect of 5-CNAC on platelet aggregation, the following studies are performed. Samples of 0.400 mL PRP containing 5-CNAC are prepared as above. To these samples is added 0.005 mL of an aggregation stimulator which is either ADP (Roche Molecular Biochemicals, Mannheim) or collagen (Horm Chemie, Munich). The final concentrations of either the ADP or collagen are as indicated in the “Results” section. […] The extent of aggregation is measured by expressing the maximal difference in optical density (independent of the time after the addition of the aggregation stimulator, i.e., either ADP or collagen) and normalized taking the control curves (without 5-CNAC) as an internal standard set at 100%.

[3] = test system: platelet rich plasma (PRP); experiment: Collagen-stimulated platelet aggregation in PRP (aggregometer, optical density)
Experimental: as §1, §2

## O=C(O)CCCCCCCNC(=O)c1cc(Cl)ccc1O [5-CNAC, N-(5-chlorosalicyloyl)-8-aminocaprylic acid]
[1]; 3 μM and 2 μM ADP compared with 5 μM ADP
  inhibition of platelet aggregation at suboptimal ADP stimulation: platelet aggregation is inhibited by lower concentrations of 5-CNAC
[1]; 5 μM ADP (maximal stimulation), PRP from 12 healthy subjects
  concentration at which inhibition of platelet aggregation becomes apparent: ≥ 2 µM
[1]; all concentrations of ADP tested
  phase of the aggregation curve in which inhibition is seen: evident in the second phase of the aggregation curve, but is not observed in the initial phase
[1]; in the presence of 5-CNAC
  change in cell shape upon ADP addition (increase in optical density): undisturbed
[1]; later part of the aggregation curve
  inhibition of secondary aggregation: dose-dependently inhibits the later part of the aggregation curve
[2]; 5-CNAC alone added to PRP, no stimulator
  triggering of platelet aggregation by the compound alone: does not trigger platelet aggregation
[2]; PRP
  effect on platelet morphology (swirling of the cells): does not alter platelet morphology
[3]; 1 μg/mL collagen
  concentration at which inhibition is evident: ≥ 50 µM
[3]; 2 μg/mL collagen, one individual
  concentration showing platelet aggregation inhibition: about 1 mM
[3]; 2.5 μg/mL collagen, PRP of one individual, not at lower concentrations
  concentration giving some inhibition of platelet aggregation: 200 µM
[3]; 5 μg/mL collagen
  concentration at which inhibition of platelet aggregation becomes detectable: about 1 mM
[3]; 5 μg/mL collagen, 100 μM 5-CNAC
  effect on platelets (aggregation): unaffected
[3]; collagen-stimulated aggregation
  phase of the aggregation curve in which inhibition is seen: becomes apparent in the second phase of the aggregation curve
